Molecular target: T1, soybean lipoxygenase (LOX) (Glycine max, UniProt P08170)
T1 construct: gene LOX1.1; commercial native soybean enzyme (Sigma), catalogue number or type not given; 13-hydroperoxylinoleate product points to LOX-1
T1 sequence (P08170 1-839): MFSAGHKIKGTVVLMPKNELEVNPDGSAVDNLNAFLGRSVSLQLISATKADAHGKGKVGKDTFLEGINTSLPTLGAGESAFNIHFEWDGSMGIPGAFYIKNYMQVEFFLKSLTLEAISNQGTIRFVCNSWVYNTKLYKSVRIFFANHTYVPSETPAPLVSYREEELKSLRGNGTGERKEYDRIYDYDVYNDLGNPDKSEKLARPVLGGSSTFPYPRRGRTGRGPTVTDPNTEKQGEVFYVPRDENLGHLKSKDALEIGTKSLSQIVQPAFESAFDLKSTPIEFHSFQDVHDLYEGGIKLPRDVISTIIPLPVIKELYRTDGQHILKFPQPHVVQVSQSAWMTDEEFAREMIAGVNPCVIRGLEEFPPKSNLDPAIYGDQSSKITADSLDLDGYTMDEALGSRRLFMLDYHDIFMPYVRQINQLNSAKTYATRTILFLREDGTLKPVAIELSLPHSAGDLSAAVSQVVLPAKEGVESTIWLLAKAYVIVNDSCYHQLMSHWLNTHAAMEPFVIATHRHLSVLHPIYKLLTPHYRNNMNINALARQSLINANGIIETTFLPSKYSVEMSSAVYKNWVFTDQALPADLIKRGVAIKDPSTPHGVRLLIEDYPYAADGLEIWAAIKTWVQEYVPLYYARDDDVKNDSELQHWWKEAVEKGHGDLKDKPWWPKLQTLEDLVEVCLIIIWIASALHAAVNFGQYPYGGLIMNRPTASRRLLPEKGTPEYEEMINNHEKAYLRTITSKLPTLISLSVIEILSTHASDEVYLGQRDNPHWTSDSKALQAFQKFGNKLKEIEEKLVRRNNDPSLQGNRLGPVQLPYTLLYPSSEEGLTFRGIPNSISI
Assay: UV absorbance at […] nm
Format: biochemical
Details: 0.1 mM compound; sodium linoleate; room temperature

First: O=C(O[C@@H]1O[C@H](CO)[C@@H](O)[C@H](O)[C@H]1O)c1ccccc1 [compound 5, benzoate glucoside]
Second: O=C(O)/C=C/c1ccc(O[C@@H]2O[C@H](CO)[C@@H](O)[C@H](O)[C@H]2O)cc1 [compound 14, 4-O-β-D-glucopyranyl trans-p-coumaric acid]
The “% LOX ± SD Inhbt @ (0.1 mM)” value of the first is lower: 29 ± 1.1% for the first, 100 ± 2.5% for the second.

Compared with `O=C(O)/C=C/c1ccc(O)cc1` [compound 13, p-coumaric acid], `O=C(/C=C/c1ccc(O)cc1)OC[C@H]1O[C@@H](Oc2c(-c3ccc(O)cc3)oc3cc(O)cc(O)c3c2=O)[C@H](O)[C@@H](O)[C@@H]1O` [compound 19, tiliroside] is lower in “% LOX ± SD Inhbt @ (0.1 mM)” value: 18 ± 0.6% for the first, 8 ± 0.3% for the second.

Going from `CC1=CC(=O)CC(C)(C)[C@@]1(O)/C=C/C(C)=C\CO[C@@H]1O[C@H](CO)[C@@H](O)[C@H](O)[C@H]1O` [compound 16, abscisic alcohol glucoside] to `C[C@@H]1O[C@@H](OC[C@H]2O[C@@H](Oc3c(-c4ccc(O)cc4)oc4cc(O)cc(O)c4c3=O)[C@H](O)[C@@H](O)[C@@H]2O)[C@H](O)[C@H](O)[C@H]1O` [compound 17, kaempferol-3-O-β-rutinoside], the “% LOX ± SD Inhbt @ (0.1 mM)” value rises from 25±1.2% to 46 ± 1.0%.

Molecular target: T1, soybean lipoxygenase (LOX)
Assay: UV absorbance at […] nm
Format: biochemical
Details: room temperature; product 13-hydroperoxylinoleate

For `CCCCC/C=C\C/C=C\CCCCCCCC(=O)O` [sodium linoleate], the “UV absorbance at 234 nm” value was “The transformation of sodium linoleate to 13-hydroperoxylinoleate sodium was measured spectrophotometrically”.
